Results as given in patent US20030022158A1, “Peptides from the TT virus sequence and monospecific antibodies binding to the TT virus” (priority 1999, published 2003).

Tests used:
[1] = system: human IgG antibodies in human serum samples; test: EIA of human antibody reactivities to overlapping synthetic peptides of TTV ORF1 and ORF2 (Tables 2 and 3); assay type: binding; details: for optical density (OD) at 405 nm: serum diluted 1:100, OD over 0.500 considered positive; for human reactivity to peptide (reactive peptides within ORF1): tested human sera, EIA
Text: Overlapping peptides (18 amino acids in length containing an 8 amino acid overlap) corresponding to regions of the ORFI and ORF2 of TTV (TABLE 1; Genebank accession no AB008394) were produced by a multiple peptide synthesizer (Syro, Syntex, Germany) using standard Fmoc chemistry (Sallberg et al., Immunology Letters, 30:59 68 (1991), herein expressly incorporated by reference in its entirety).
(§1) The EIAs used to identify which peptides interacted with human sera followed protocols known in the art. (See Zhang et al., J Gen Virol, 78:2735-2746 (1997), herein expressly incorporated by reference in its entirety). Briefly, microplates (Nunc, Denmark) were coated for 48 hours with synthetic peptides at a concentration of 10 μg/ml in 0.05M sodium carbonate buffer pH 9.6. After blocking for 2 hours at room temperature with phosphate buffered saline containing 1% bovine serum albumin, 2% goat serum and 0.05% Tween 20 (dilution buffer) the plates were incubated with human sera diluted 1:100 in dilution buffer. Bound human IgG was detected by incubation with anti-human IgG antibodies conjugated to alkaline phosphatase (Sigma Chemicals, St. Louis, Mo.). The plates were developed by the addition of […] (Sigma) and the optical densities were determined at 405 nm.

[2] = system: human antibodies in human serum samples; test: EIA reactivities of three human serum samples with deletion and alanine substitution analogues of SEQ ID NO: 1 (Table 6); assay type: binding; details: positive = more than 50% of the reactivity of the original peptide
Procedure: as §1
The reactivity to the TATTTTYAYPGTNRPPV (SEQ ID NO: 1) peptide was further characterized by mapping the reactivity of deletion and substitution peptide analogues.

[3] = human serum sample 1, negative for TTV DNA by PCR
[4] = human serum sample 2, negative for TTV DNA by PCR
[5] = human serum sample 3, negative for TTV DNA by PCR
[6] = human serum sample 4, negative for TTV DNA by PCR
[7] = human serum sample 5, negative for TTV DNA by PCR
[8] = human serum sample 6, negative for TTV DNA by PCR
[9] = human serum sample 7, negative for TTV DNA by PCR
[10] = human serum sample 9, positive for TTV DNA by PCR
[11] = human serum sample 11, negative for TTV DNA by PCR
[12] = human serum sample 18, positive for TTV DNA by PCR
[13] = human serum sample 36, positive for TTV DNA by PCR
[14] = human serum sample 48, positive for TTV DNA by PCR
[15] = human serum sample 98, positive for TTV DNA by PCR
[16] = human serum sample 110, positive for TTV DNA by PCR
[17] = human serum sample 155, positive for TTV DNA by PCR
[18] = human serum sample 157, positive for TTV DNA by PCR

Substance	optical density (OD) at 405 nm [1, 3]	optical density (OD) at 405 nm [1, 4]	optical density (OD) at 405 nm [1, 5]	optical density (OD) at 405 nm [1, 6]	optical density (OD) at 405 nm [1, 7]	optical density (OD) at 405 nm [1, 8]	optical density (OD) at 405 nm [1, 9]	optical density (OD) at 405 nm [1, 10]	optical density (OD) at 405 nm [1, 11]	optical density (OD) at 405 nm [1, 12]	optical density (OD) at 405 nm [1, 13]	optical density (OD) at 405 nm [1, 14]	optical density (OD) at 405 nm [1, 15]	optical density (OD) at 405 nm [1, 16]	optical density (OD) at 405 nm [1, 17]	optical density (OD) at 405 nm [1, 18]	OD at 405 nm, reactivity of human serum sample P4 [2]	OD at 405 nm, reactivity of human serum sample P7 [2]	OD at 405 nm, reactivity of human serum sample P36 [2]	human reactivity to peptide (reactive peptides within ORF1) [1]
22: overlapping synthetic peptide of TTV ORF1 (TATTTTYAYPGTNR) [compound 22]	0.07 OD	0.07 OD	0.07 OD	0.08 OD	0.08 OD	0.09 OD	0.09 OD	0.08 OD	0.11 OD	0.07 OD	0.08 OD	0.10 OD	0.04 OD	0.07 OD	0.11 OD	0.11 OD	0.092 OD	0.103 OD	0.078 OD	
DQNIHMNARLLIRSPFT (Peptide Immunogen) [compound 50, overlapping synthetic peptide of TTV ORF1]	0.07 OD	0.09 OD	0.08 OD	0.09 OD	0.08 OD	0.86 OD	0.29 OD	0.08 OD	0.18 OD	0.07 OD	0.07 OD	0.07 OD	0.10 OD	0.20 OD	0.63 OD	0.46 OD	0.836 OD	1.769 OD	0.850 OD	Reactive
GLYSSIWLSPGRSYFET (Peptide Immunogen) [compound 42, overlapping synthetic peptide of TTV ORF1]	0.08 OD	0.11 OD	0.09 OD	0.10 OD	0.17 OD	0.23 OD	0.11 OD	0.27 OD	0.19 OD	0.12 OD	0.10 OD	0.09 OD	0.16 OD	0.42 OD	0.35 OD	1.24 OD	0.135 OD	0.242 OD	0.076 OD	Reactive
LIRSPFTDPQLLVHTDP (Peptide Immunogen) [compound 51, overlapping synthetic peptide of TTV ORF1]	0.06 OD	0.09 OD	0.08 OD	0.10 OD	0.12 OD	0.24 OD	0.13 OD	0.07 OD	0.13 OD	0.07 OD	0.08 OD	0.08 OD	0.11 OD	0.09 OD	0.24 OD	0.78 OD	0.899 OD	1.697 OD	0.903 OD	Reactive
PDEKSQREILLNKIASY (Peptide Immunogen) [compound 29, overlapping synthetic peptide of TTV ORF1]	0.42 OD	0.36 OD	0.45 OD	0.53 OD	0.22 OD	0.95 OD	0.29 OD	0.21 OD	0.14 OD	0.11 OD	0.09 OD	0.10 OD	0.09 OD	0.25 OD	0.59 OD	0.62 OD	0.142 OD	0.105 OD	0.076 OD	Reactive
YTDIKYNPFTDRGEGNM (Peptide Immunogen) [compound 44, overlapping synthetic peptide of TTV ORF1]	0.09 OD	0.11 OD	0.11 OD	0.12 OD	0.98 OD	0.15 OD	0.10 OD	0.09 OD	0.14 OD	0.09 OD	0.08 OD	0.08 OD	0.12 OD	0.13 OD	0.17 OD	1.25 OD	0.855 OD	1.829 OD	0.806 OD	Reactive
